Measurements published in patent US11999752B2, “Vinyl imidazole compounds as inhibitors of KRAS” (Incyte Corporation, priority 2020, dated 2024).
Like-named read-outs stand apart in the source and are kept apart here.

Key:
KRAS G12C = KRAS G12C (Homo sapiens, UniProt P01116, G12C); assay: GDP-GTP exchange assay (fluorescence based guanine nucleotide exchange, bodipy-GDP for GppNHp, SOS1); type: biochemical; conditions: bodipy-loaded KRAS G12C 2.5 nM, GppNHp 500 uM, SOS1 150 nM; 2 hours pre-incubation with inhibitor; read-out: G12C_exchange IC50
Procedure: Example A. GDP-GTP Exchange Assay.
The inhibitor potency of the exemplified compounds was determined in a fluorescence based guanine nucleotide exchange assay, which measures the exchange of bodipy-GDP (fluorescently labeled GDP) for GppNHp (Non-hydrolyzable GTP analog) to generate the active state of KRAS in the presence of SOS1 (guanine nucleotide exchange factor). Inhibitors were serially diluted in DMSO and a volume of 0.1 μL was transferred to the wells of a black low volume 384-well plate. 5 μL/well volume of bodipy-loaded KRAS G12C diluted to 5 nM in assay buffer (25 mM Hepes pH 7.5, 50 mM NaCl, 10 mM MgCl2 and 0.01% Brij-35) was added to the plate and pre-incubated with inhibitor for 2 hours at ambient temperature. Appropriate controls (enzyme with no inhibitor or with a G12C inhibitor (AMG -510)) were included on the plate. The exchange was initiated by the addition of a 5 μL/well volume containing 1 mM GppNHp and 300 nM SOS1 in assay buffer. The 10 μL/well reaction concentration of the bodipy-loaded KRAS G12C, GppNHp, and SOS1 were 2.5 nM, 500 uM, and 150 nM, respectively. The reaction plates were incubated at ambient temperature for 2 hours, a time estimated for complete GDP-GTP exchange in the absence of inhibitor. For the KRAS G12D and G12V mutants, similar guanine nucleotide exchange assays were used with 2.5nM as final concentration for the bodipy loaded KRAS proteins and with 4 hours and 3 hours incubation after adding GppNHp-SOS1 mixture for G12D and G12V respectively. A cyclic peptide described to selectively bind G12D mutant (Sakamoto et al., BBRC 484.3 (2017), 605-611) or internal compounds with confirmed binding were used as positive controls in the assay plates. Fluorescence intensities were measured on a PheraStar plate reader instrument (BMG Labtech) with excitation at 485 nm and emission at 520 nm.
Either GraphPad prism or XLfit was used to analyze the data. The IC50 values were derived by fitting the data to a four parameter logistic equation producing a sigmoidal dose -response curve with a variable Hill coefficient. Y=Bottom+(Top−Bottom)/(1+10^((LogIC50−X)*Hill slope)); XLfit equation: Y=(A+((B−A)/(1+((X/C)^D)))) where X is the logarithm of inhibitor concentration and Y is the response. Prism equation: […]

[1] = test system: MIA PaCa-2 (KRAS G12C) cells; assay: Cellular pERK HTRF assay; type: cell-based, human; conditions: KRAS_G12C pERK assay, cells incubated with compounds 4 hours, read-out: G12C_pERK IC50
Procedure: Example C: Cellular pERK HTRF Assay
MIA PaCa-2 (KRAS G12C; ATCC® CRL-1420), A427 (KRAS G12D; ATCC® HTB53), HPAF-II (KRAS G12D; ATCC® CRL-1997) and NCI-H838 (KRAS WT; ATCC® CRL-5844) cells are purchased from ATCC and maintained in RPMI 1640 media supplemented with 10% FBS (Gibco/Life Technologies). The cells are plated at 5000 cells per well (8 uL) into Greiner 384-well low volume, flat-bottom, tissue culture treated white plates and incubated overnight at 37° C., 5% CO2. The next morning, test compound stock solutions are diluted in media at 3× the final concentration, and 4 uL are added to the cells. The plate is mixed by gentle rotation for 30 seconds (250rpm) at room temperature. The cells are incubated with the KRAS G12C and G12D compounds for 4 hours or 2 hours respectively at 37° C., 5% CO2.
4 uL of 4× lysis buffer with blocking reagent (1:25) (Cisbio) are added to each well and plates are rotated gently (300 rpm) for 30 minutes at room temperature. 4 uL per well of Cisbio anti Phospho-ERK 1/2 d2 is mixed with anti Phospho-ERK 1/2 Cryl)tate (1:1) are added to each well, mixed by rotation and incubated overnight in the dark at room temperature. Plates are read on the Pherastar plate reader at 665 nm and 620 nm wavelengths. IC50 determination is performed by fitting the curve of inhibitor percent inhibition versus the log of the inhibitor concentration using the GraphPad Prism 7 software.

IC50 (KRAS G12C) [nM] | IC50 ([1]; Homo sapiens, MIA PaCa-2) [nM] | IC50 [1] [nM] | Molecule
100 to 1000 |  |  | 4-(1-cyclopropyl-3-vinyl-5,6-dihydroimidazo[1,5-a]pyrazin-7(8H)-yl)-7-(2-fluoro-6-hydroxyl)henyl)-1-(2-isopropyl-4-methylpyridin-3-yl)quinazolin-2(1H)-one [Example 8]
≤ 100 | 1000 to 5000 |  | C=Cc1ncc2n1CCN(c1nc(OCC3CCCN3C)nc3c(F)c(-c4cc(O)cc5ccccc45)c(Cl)cc13)C2 (racemic) [Example 11, 4-(6-chloro-8-fluoro-2-((1-methylpyrrolidin-2-yl)methoxy)-4-(3-vinyl-5,6-dihydroimidazo[1,5-a]pyrazin-7(8H)-yl)quinazolin-7-yl)naphthalen-2-ol]
100 to 1000 | 5000 to 10000 |  | C=Cc1ncc2n1CCN(c1nc(OCC3CCCN3C)nc3c(F)c(-c4c(O)cccc4F)c(Cl)cc13)C2 (racemic) [Example 12, 2-(6-chloro-8-fluoro-2-((1-methylpyrrolidin-2-yl)methoxy)-4-(3-vinyl-5,6-dihydroimidazo[1,5-a]pyrazin-7(8H)-yl)quinazolin-7-yl)-3-fluorophenol]
100 to 1000 | 5000 to 10000 |  | C=Cc1ncc2n1CCN(c1nc(OCC3CCCN3C)nc3c(F)c(-c4c(C)ccc5[nH]ncc45)c(Cl)cc13)C2 (racemic) [Example 13, 6-chloro-8-fluoro-7-(5-methyl-1H-indazol-4-yl)-2-((1-methylpyrrolidin-2-yl)methoxy)-4-(3-vinyl-5,6-dihydroimidazo[1,5-a]pyrazin-7(8H)-yl)quinazoline]
100 to 1000 | 5000 to 10000 |  | C=Cc1ncc2n1CCN(c1nc(OC3CCCN(C)C3)nc3c(F)c(-c4cc(O)cc5ccccc45)c(Cl)cc13)C2 (racemic) [Example 18, 4-(6-chloro-8-fluoro-2-((1-methylpiperidin-3-yl)oxy)-4-(3-vinyl-5,6-dihydro-imidazo[1,5-a]pyrazin-7(8H)-yl)quinazolin-7-yl)naphthalen-2-ol]
100 to 1000 | 5000 to 10000 |  | C=Cc1ncc2n1CCN(c1nc(=O)n(-c3c(C)ccnc3C(C)C)c3nc(-c4c(O)cccc4F)c(F)cc13)C2 (single isomer, unassigned) [Example 1]
100 to 1000 |  | 5000 to 10000 | C=Cc1ncc2n1CCN(c1nc(=O)n(-c3c(C)ccnc3C(C)C)c3nc(-c4c(O)cccc4F)c(F)cc13)C2 (single isomer, unassigned) [Example 2]
100 to 1000 | 5000 to 10000 |  | C=Cc1ncc2n1CCN(c1nc(=O)n(CC3CC3)c3nc(-c4c(O)cccc4F)c(F)cc13)C2 [Example 3]
100 to 1000 | 5000 to 10000 |  | C=Cc1ncc2n1CCN(c1nc(=O)n(C(C)C)c3nc(-c4c(O)cccc4F)c(F)cc13)C2 [Example 4]
1000 to 5000 |  |  | C=Cc1ncc2n1CCN(c1nc(=O)n(CCOC)c3nc(-c4c(O)cccc4F)c(F)cc13)C2 [Example 5]
1000 to 5000 |  |  | Cc1ccnc(C(C)C)c1-n1c(=O)nc(N2CCn3c(cnc3/C=C/c3cc(F)cc(F)c3)C2)c2cc(F)c(-c3c(O)cccc3F)nc21 [Example 6]
1000 to 5000 |  |  | Cc1ccnc(C(C)C)c1-n1c(=O)nc(N2CCn3c(cnc3/C=C/c3ccc(F)cc3F)C2)c2cc(F)c(-c3c(O)cccc3F)nc21 [Example 7]
1000 to 5000 |  |  | C=Cc1nc(CN2CC(C(F)(F)F)C2)c2n1CCN(c1nc(=O)n(-c3c(C)ccnc3C(C)C)c3nc(-c4c(O)cccc4F)c(F)cc13)C2 [Example 9]
1000 to 5000 |  |  | C=Cc1nc(CN(C)CC#N)c2n1CCN(c1nc(=O)n(-c3c(C)ccnc3C(C)C)c3nc(-c4c(O)cccc4F)c(F)cc13)C2 [Example 10]
100 to 1000 | 1000 to 5000 |  | C=Cc1ncc2n1CCN(c1nc(OCCN(C)C)nc3c(F)c(-c4cc(O)cc5ccccc45)c(Cl)cc13)C2 [Example 14, 4-(6-chloro-2-(2-(dimethylamino)ethoxy)-8-fluoro-4-(3-vinyl-5,6-dihydroimidazo[1,5-a]pyrazin-7(8H)-yl)quinazolin-7-yl)naphthalen-2-ol]
100 to 1000 | 5000 to 10000 |  | C=Cc1ncc2n1CCN(c1nc(OC3CCN(C)CC3)nc3c(F)c(-c4cc(O)cc5ccccc45)c(Cl)cc13)C2 [Example 15, 4-(6-chloro-8-fluoro-2-((1-methylpiperidin-4-yl)oxy)-4-(3-vinyl-5,6-dihydroimidazo[1,5-a]pyrazin-7(8H)-yl)quinazolin-7-yl)naphthalen-2-ol]
100 to 1000 | 5000 to 10000 |  | C=Cc1ncc2n1CCN(c1nc(OCCN3CCOCC3)nc3c(F)c(-c4cc(O)cc5ccccc45)c(Cl)cc13)C2 [Example 16, 4-(6-chloro-8-fluoro-2-(2-morpholinoethoxy)-4-(3-vinyl-5,6-dihydroimidazo-[1,5-a]pyrazin-7(8H)-yl)quinazolin-7-yl)naphthalen-2-ol]
100 to 1000 | 1000 to 5000 |  | C=Cc1ncc2n1CCN(c1nc(OC[C@@H]3CCCN3C)nc3c(F)c(-c4cc(O)cc5ccccc45)c(Cl)cc13)C2 [Example 17, 4-(6-chloro-8-fluoro-2-(((S)-1-methylpyrrolidin-2-yl)methoxy)-4-(3-vinyl-5,6-dihydroimidazo[1,5-a]pyrazin-7(8H)-yl)quinazolin-7-yl)naphthalen-2-ol]
100 to 1000 | 1000 to 5000 |  | C=Cc1ncc2n1CCN(c1nc(N3CC(N(C)C)C3)nc3c(F)c(-c4cc(O)cc5ccccc45)c(Cl)cc13)C2 [Example 19, 4-(6-chloro-2-(3-(dimethylamino)azetidin-1-yl)-8-fluoro-4-(3-vinyl-5,6-dihydroimidazo[1,5-a]pyrazin-7(8H)-yl)quinazolin-7-yl)naphthalen-2-ol]
